# Data as given in patent US20140128357A1, “METHODS OF PRODUCING AND USING BRASSINOSTEROIDS TO PROMOTE GROWTH, REPAIR AND MAINTENANCE OF SKELETAL MUSCLE AND SKIN” (Rutgers University, priority 2010, published 2014).
# Like-named read-outs stand apart in the source and are kept apart here.
# Assays:
# [1] = system: L6 rat myotubes; assay: Protein degradation, release of acid-soluble [3H]-phenylalanine; format: cell-based; conditions: for decrease in protein degradation vs control levels: 1 μM, 4 h
# [2] = system: NIH 3T3 murine fibroblast cell line; assay: Cytotoxicity, MTT assay in 3T3 fibroblasts; format: cell-based, mouse
# Protocol: FIG. 9. Cell survival curves as measured by MTT assay for brassinosteroids 1-9 against the murine fibroblast cell line NIH-3T3. Cells were incubated with various concentrations of brassinosteroids (0.3-30 μM) for 24 h at 37° C. The mean absorbance of the control cells represented 100% cell proliferation, and the mean absorbance of treated cells was related to control values to determine sensitivity. Error bars represent standard error (n=6) from mean cell proliferation as determined by repeated experiments.
# In various aspects, cell viability is measured and the effects of doses of compound and test reagents are tested in cell lines. In some aspects, cell viability was measured by the MTT (3-(4,5-Dimethylthiazol-2-yl)-2,5-diphenyltetrazolium bromide) assay in triplicate (Mosmann et al., J. Immunol. Methods 65:55-63, 1983) and quantified spectrophotometrically at 550 nm using a microplate reader (Molecular Devices, Sunnyvale, Calif.).
# 3T3 fibroblasts were seeded in a 96-well flat bottom plate at a density of 1×10^4 cells/well. Cell viability was measured by an MTT (3-(4,5-Dimethylthiazol-2-yl)-2,5-diphenyltetrazolium bromide) assay in triplicate (0.3-30 μM of test substance for […]) essentially as described by Mosmann (J. Immunol. Methods 65, 55-63, 1983) and quantified spectrophotometrically at 550 nm using a microplate reader (Molecular Devices, Sunnyvale, Calif.). […] For cell proliferation studies, cells were treated in triplicate with 0.1-10 μM of test substance for 24 h and assayed using a BrdU (5-bromo-2′-deoxyuridine) kit from Amersham (Uppsala, Sweden).
# [3] = system: L6 rat myotubes; assay: Protein synthesis, [3H]-phenylalanine incorporation in myotubes; format: cell-based; conditions: for increase in protein synthesis above control levels: 4 h (FIG. 2A); for Protein synthesis (% increase over control): 4 h; for maximum increases in protein synthesis: dose response 0.3-30 μM (FIG. 8A)
# How it was run: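 Differentiated L6 rat myotubes (2% serum, 7–9 days) treated in triplicate in serum-free DMEM with compound (10 μM) or 0.1% ethanol vehicle plus 0.5 μCi/mL [3H]-phenylalanine for 4 h. TCA-precipitated protein counted by scintillation, normalised to total protein; IGF-1 6.5 nM positive control.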
# [4] = system: AKT (Ser473) phosphorylation in L6 myotubes; assay: AKT (Ser473) phosphorylation, Western blot; format: cell-based, rat; conditions: for activation of AKT: after 1 h
# Protocol: In some aspects, Western blot analyses were carried out. Fully differentiated L6 myotubes were cultured as described above, and whole cell extracts were prepared in ice-cold RIPA buffer supplemented with 10 mM sodium fluoride, 2 mM sodium orthovanadate, 1 mM PMSF, and protease inhibitor cocktail (Sigma) and centrifuged at 12,000 g for 20 min at 4° C. Equal amounts of protein (50 μg) from the supernatants were separated on 10% SDS polyacrylamide gels and blotted onto the nitrocellulose membrane. Western blot detection was carried out with monoclonal phospho-AKT (Ser473) antibodies according to the manufacturer's instructions (Cell Signaling Technology, Danvers, Mass.). After being washed, the blots were incubated with an anti-rabbit peroxidase-labeled secondary antibody and visualized using ECL Western Blotting Detection Reagent (GE Healthcare, Piscataway, N.J.). After being stripped, the same blots were probed with total AKT antibodies to serve as loading controls.
Compound,decrease in protein degradation vs control levels [1],"time at which suppression of protein degradation reached a plateau ([1]; 3 μM HB, 1-4 h study)","IC50 ([2]; 3T3 mouse fibroblasts, MTT, 0.3-30 μM, read-out: Cell cytotoxicity, IC50)",cytotoxicity in vitro ([2]; tested up to 30 μM),increase in protein synthesis above control levels ([3]; 1 μM),"time at which stimulated protein synthesis peaked ([3]; 3 μM, 1-24 h study)",Protein synthesis (% increase over control) ([3]; 10 μM),increase in protein synthesis above control levels ([3]; 10 μM),"Protein synthesis (% increase over control) ([3]; 10 μM, listed as HB)",increase in protein synthesis above control levels ([3]; 20 μM),maximum increases in protein synthesis [3],EC50 ([3]; read-out: 50% effective dose for protein synthesis),time to AKT phosphorylation [4],"stimulation of Ser473 phosphorylation of AKT ([4]; 3 μM, 1 h)",activation of AKT [4],concentration at which inhibition of protein degradation reached a plateau ([1]; 4 h dose response),"Protein synthesis (% increase over control) ([3]; 10 μM, listed as (22S,23S)-homocastasterone)",IC50 [2],"IC50 ([2]; 3T3/NIH murine fibroblasts, MTT, 24 h (FIG. 9), read-out: half-maximal inhibitory concentration (IC50), cell proliferation)","effect of structural modification on activation of protein synthesis, in words ([3]; 10 μM)"
"CC[C@@H](C(C)C)[C@H](O)[C@@H](O)[C@@H](C)[C@H]1CC[C@H]2[C@@H]3COC(=O)[C@H]4C[C@H](O)[C@H](O)C[C@]4(C)[C@H]3CC[C@]12C [Compound 1, (22S,23S,24S)-2α,3α,22,23-tetrahydroxy-24 ethyl-β-homo-7-oxo-5α-cholestane-6-one]",8.2±0.6%,3 h,> 30 µM,no cytotoxicity,12.4±2.3%,3 h,37.2 ± 5.9 %,34.9±3.1%,37.2±5.9%,36.9±2.9%,36.9±2.9%,3 µM,30 min,up to 3 fold,significant activation of AKT,–,–,–,–,–
"CC[C@@H](C(C)C)[C@H](O)[C@@H](O)[C@@H](C)[C@H]1CC[C@H]2[C@@H]3CC(=O)[C@H]4C[C@H](O)[C@H](O)C[C@]4(C)[C@H]3CC[C@]12C [Compound 2, (22S,23S,24S)-2α,3α, 22,23-tetrahydroxy-24-ethyl-5α-cholestan-6-one]",8.7±1.7%,–,–,–,–,–,41.0 ± 2.7 %,–,–,–,40.7±4.9%,–,–,–,significant activation of AKT,10 µM,41.0±2.7%,–,–,–
"CC[C@@H](C(C)C)[C@H](O)[C@@H](O)[C@@H](C)[C@H]1CC[C@H]2[C@@H]3CC(=O)N[C@H]4C[C@H](O)[C@H](O)C[C@]4(C)[C@H]3CC[C@]12C [Compound 5, (22S,23S,24S)-2α,3α-22,23-tetrahydroxy-24-ethyl-B-homo-6-aza-5α-cholestan-7-one]",–,–,–,–,–,–,3.3 ± 12.4%,–,–,–,–,–,–,–,–,–,–,12.5 µM,12.5 µM,complete loss of activation of protein synthesis
